System: subjects with dIBS
Experiment: Study of rifaximin BID in subjects with dIBS: adequate relief of IBS symptoms and bloating
Format: in vivo, human
Settings: for Percentage of Subjects with Number of Weeks with Adequate Relief of Bloating Symptoms / Percentage of Subjects with Number of Weeks with Adequate Relief of IBS Symptoms: RFX 550 mg BID, N = 191, ITT
Experimental: This example relates to a study of rifaximin in subjects with dIBS. […] There were two measures of efficacy assessed. Subjects were questioned on the relief of overall IBS symptoms and bloating. […] The analyses defined success as a “yes” response to questions regarding adequate relief.
All subpopulations in the study responded to therapy. Baseline severity was determined using 7-point Lickert scales during screening for Abdominal Pain/Discomfort and Bloating, and the number, type (normal, hard, loose) and urgency of bowel movements.
Duration of effect was assessed in a follow-up period. Subjects that responded in the 4 week treatment period were followed for an additional 3 months.
The effect of treatment on the percentage of subjects who reported adequate relief of IBS and bloating symptoms for at least two of the final three weeks during the treatment phase (Weeks 1 to 4) is shown in Tables 3-5 and FIGS. 4-6 below.
Two measures of efficacy were assessed independently. The first was the proportion of subjects who provided a ‘yes’ response to the weekly SGA question: “In the past 7 days, have you had adequate relief of your IBS symptoms? (yes/no)”. The second endpoint was the proportion of subjects who provide a ‘yes’ response to the weekly individual symptom question: “In the past 7 days, have you had adequate relief of your symptom of bloating? (yes/no)”. Durability was based on the proportion of subjects that had adequate relief over the entire treatment phase.
It is reported herein that the severity of baseline symptoms of abdominal pain and bloating influenced the response to rifaximin treatment. The co-primary endpoints in this analysis assessed weekly yes/no responses to questions regarding adequate relief of global IBS symptoms and IBS-associated bloating. Severity of baseline IBS symptoms was evaluated as a potential confounder of clinical response and was categorized as mild/moderate or severe based on a mean score of ≤4 vs. >4 (on a 7-point scale) for bloating and abdominal pain.
The Weekly yes/no responses to questions regarding adequate relief of global IBS symptoms and IBS-associated bloating were assessed. Clinical response was defined as adequate relief for 2 of the final 3 treatment weeks (wk 2, 3, or 4). Severity of baseline IBS symptoms was evaluated as a potential confounder of clinical response and was categorized as mild/moderate or severe based on a mean score of ≤4 versus >4 (on a 7-point scale (0=not bothersome; 6=very bothersome)) for bloating and abdominal pain.

Substance: (2S,16Z,18E,20S,21S,22R, 23R,24R,25S,26S,27S,28E)-5,6,21,23,25 Pentahydroxy-27-methoxy -2,4,11,16,20,22,24,26-octamethyl-2,7-(epoxypentadeca-(1,11,13)trienimino)benzofuro (4,5-e) pyrido(1,2,-a) benzimidazole-1,15(2H)-dione,25-acetate [Rifaximin]
- Percentage of Subjects with Number of Weeks with Adequate Relief of Bloating Symptoms (0 weeks): 35%
- Percentage of Subjects with Number of Weeks with Adequate Relief of IBS Symptoms (0 weeks): 33%
- Adequate relief of IBS related symptoms (SGA) and IBS-related bloating (IBS-B) (550 mg BID for 2 weeks): statistically significant relief
- Percentage of Subjects with Number of Weeks with Adequate Relief of Bloating Symptoms (1 week): 14%
- Percentage of Subjects with Number of Weeks with Adequate Relief of IBS Symptoms (1 week): 11%
- Percentage of Subjects with Number of Weeks with Adequate Relief of Bloating Symptoms (2 weeks): 15%
- Percentage of Subjects with Number of Weeks with Adequate Relief of IBS Symptoms (2 weeks): 15%
- Percentage of Subjects with Number of Weeks with Adequate Relief of Bloating Symptoms (3 weeks): 20%
- Percentage of Subjects with Number of Weeks with Adequate Relief of IBS Symptoms (3 weeks): 23%
- Percentage of Subjects with Number of Weeks with Adequate Relief of Bloating Symptoms (4 weeks): 14%
- Percentage of Subjects with Number of Weeks with Adequate Relief of IBS Symptoms (4 weeks): 16%
- Treatment effect (Bloating) (Age <65): 6.8%
- Treatment effect (IBS Sx) (Age <65): 6.9%
- Treatment effect (Bloating) (Age ≥65): 3.2%
- Treatment effect (IBS Sx) (Age ≥65): 19.1%
- Treatment effect (Bloating) (Diabetes History: N): 7.4%
- Treatment effect (IBS Sx) (Diabetes History: N): 9.5%
- Treatment effect (Bloating) (Diabetes History: Y): −5.6%
- Treatment effect (IBS Sx) (Diabetes History: Y): −12.7%
- Treatment effect (Bloating) (Disease Duration: 10-20 y): 11.7%
- Treatment effect (IBS Sx) (Disease Duration: 10-20 y): 20.1%
- Treatment effect (Bloating) (Disease Duration: >20 y): 35.1%
- Treatment effect (IBS Sx) (Disease Duration: >20 y): 46.6%
- Treatment effect (Bloating) (Disease Duration: ≤10 y): 2.8%
- Treatment effect (IBS Sx) (Disease Duration: ≤10 y): 1.8%
- Adequate Relief of Bloating at the End of the Treatment Phase: Failure (Female, RFX 275 2 w (N = 95)): 52 (64.2%) n (%)
- Adequate Relief of Bloating at the End of the Treatment Phase: Success (Female, RFX 275 2 w (N = 95)): 29 (35.8%) n (%)
- Adequate Relief of IBS Symptoms at the End of the Treatment Phase: Failure (Female, RFX 275 2 w (N = 95)): 46 (56.8%) n (%)
- Adequate Relief of IBS Symptoms at the End of the Treatment Phase: Success (Female, RFX 275 2 w (N = 95)): 35 (43.2%) n (%)
- Adequate Relief of Bloating at the End of the Treatment Phase: Failure (Female, RFX 550 2 w (N = 99)): 45 (61.6%) n (%)
- Adequate Relief of Bloating at the End of the Treatment Phase: Success (Female, RFX 550 2 w (N = 99)): 28 (38.4%) n (%)
- Adequate Relief of IBS Symptoms at the End of the Treatment Phase: Failure (Female, RFX 550 2 w (N = 99)): 44 (60.3%) n (%)
- Adequate Relief of IBS Symptoms at the End of the Treatment Phase: Success (Female, RFX 550 2 w (N = 99)): 29 (39.7%) n (%)
- Adequate Relief of Bloating at the End of the Treatment Phase: Failure (Female, RFX 550 2 w (N = 191)): 74 (54.0%) n (%)
- Adequate Relief of Bloating at the End of the Treatment Phase: Success (Female, RFX 550 2 w (N = 191)): 63 (46.0%) n (%)
- Adequate Relief of IBS Symptoms at the End of the Treatment Phase: Failure (Female, RFX 550 2 w (N = 191)): 66 (48.2%) n (%)
- Adequate Relief of IBS Symptoms at the End of the Treatment Phase: Success (Female, RFX 550 2 w (N = 191)): 71 (51.8%) n (%)
- odds ratio, Adequate Relief of Bloating at the End of the Treatment Phase (Female, RFX 550 2 w vs. PBO): Comparison of RFX 550 2 w vs. PBO p-value: 0.5366, odds ratio: 1.166 (0.716, 1.898)
- odds ratio, Adequate Relief of IBS Symptoms at the End of the Treatment Phase (Female, RFX 550 2 w vs. PBO): Comparison of RFX 550 2 w vs. PBO p-value: 0.7608, odds ratio: 1.078 (0.665, 1.747)
- Adequate Relief of Bloating at the End of the Treatment Phase: Failure (Female, RFX 550 4 w (N = 98)): 44 (57.9%) n (%)
- Adequate Relief of Bloating at the End of the Treatment Phase: Success (Female, RFX 550 4 w (N = 98)): 32 (42.1%) n (%)
- Adequate Relief of IBS Symptoms at the End of the Treatment Phase: Failure (Female, RFX 550 4 w (N = 98)): 42 (55.3%) n (%)
- Adequate Relief of IBS Symptoms at the End of the Treatment Phase: Success (Female, RFX 550 4 w (N = 98)): 34 (44.7%) n (%)
- Treatment effect (Bloating) (Gender: F): 3.9%
- Treatment effect (IBS Sx) (Gender: F): 3.5%
- Treatment effect (Bloating) (Gender: M): 13.6%
- Treatment effect (IBS Sx) (Gender: M): 21%
- Adequate Relief of Bloating at the End of the Treatment Phase: Failure (Male, RFX 275 2 w (N = 95)): 8 (57.1%) n (%)
- Adequate Relief of Bloating at the End of the Treatment Phase: Success (Male, RFX 275 2 w (N = 95)): 6 (42.9%) n (%)
- Adequate Relief of IBS Symptoms at the End of the Treatment Phase: Failure (Male, RFX 275 2 w (N = 95)): 9 (64.3%) n (%)
- Adequate Relief of IBS Symptoms at the End of the Treatment Phase: Success (Male, RFX 275 2 w (N = 95)): 5 (35.7%) n (%)
- Adequate Relief of Bloating at the End of the Treatment Phase: Failure (Male, RFX 550 2 w (N = 99)): 16 (61.5%) n (%)
- Adequate Relief of Bloating at the End of the Treatment Phase: Success (Male, RFX 550 2 w (N = 99)): 10 (38.5%) n (%)
- Adequate Relief of IBS Symptoms at the End of the Treatment Phase: Failure (Male, RFX 550 2 w (N = 99)): 14 (53.8%) n (%)
- Adequate Relief of IBS Symptoms at the End of the Treatment Phase: Success (Male, RFX 550 2 w (N = 99)): 12 (46.2%) n (%)
- Adequate Relief of Bloating at the End of the Treatment Phase: Failure (Male, RFX 550 2 w (N = 191)): 29 (53.7%) n (%)
- Adequate Relief of Bloating at the End of the Treatment Phase: Success (Male, RFX 550 2 w (N = 191)): 25 (46.3%) n (%)
- Adequate Relief of IBS Symptoms at the End of the Treatment Phase: Failure (Male, RFX 550 2 w (N = 191)): 25 (46.3%) n (%)
- Adequate Relief of IBS Symptoms at the End of the Treatment Phase: Success (Male, RFX 550 2 w (N = 191)): 29 (53.7%) n (%)
